Assay results as given in patent publication EP0752872B1, “NADH OXIDASE AS A TARGET IN DIAGNOSIS AND THERAPY” (Morré, D. James, priority 1994, dated 1995).

Tests used:
[1] = test system: plasma membrane NADH oxidase; conditions: addition at 0.1 µM; normal rat liver plasma membrane vesicles; no addition 0.72 ± 0.06; cited from earlier work
HL-60 cells [2] = assay: Growth of HL-60 cells in suspension; type: cell-based, human
[3] = test system: NADH oxidase activity of serum; assay: NADH oxidation by rat serum samples; type: biochemical; conditions: +0.25 µM adriamycin
Protocol: (§1) Spectrophometric assay of NADH oxidase. NADH oxidase activity was determined as the disappearance of NADH measured at 340 nm in a reaction mixture containing 25 mM Tris-MES buffer (pH 7.2), 1 mM KCN to inhibit the low levels of contaminating mitochondrial oxidase activity, and 150 µM NADH at 37°C with constant stirring. Activity was measured using a Hitachi U3210 spectrophotometer with continuous recording over two intervals of 5 min each. A millimolar extinction coefficient of 6.22 was used to determine specific activity.

[4] = test system: NADH oxidase activity of plasma membranes of HL-60 cells; assay: NADH oxidase assay, HL-60 plasma membranes; type: biochemical, human
Protocol: as §1

[5] = test system: plasma membrane NADH oxidase; assay: Spectrophotometric NADH oxidase assay, rat liver plasma membranes (normal cells); type: biochemical
Protocol: Purification of plasma membranes from rat liver. A 5000 x g pellet from the preparation of Golgi apparatus (Morré (1971) Meth. Enzymol. 22, 130-148) was the starting material. The fluffy layer which contains the Golgi apparatus fraction was mixed, withdrawn and excluded from the plasma membrane preparations. Cold 1 mM NaHCO3 (5 ml) was added to each tube and the friable yellow-brown upper part of the pellet was resuspended with a pen-brush, leaving the reddish tightly packed bottom part of the pellet undisturbed. The resuspended material was homogenized in aliquots of 5 ml each in a 30 ml stainless steel homogenizer (Duragrind) 20 times by hand. The homogenates were combined, diluted with cold 1 mM NaHCO3 (1:1 dilution), and centrifuged at 6000 x g in a HB rotor for 15 min. The supernatant was discarded and the pellet was used for the two-phase separation (Morré & Morré (1989) BioTechniques 7:946-958).
The two-phase system contained 6.4% (w/w) Dextran T-500 (Pharmacia), 6.4% (w/w) polyethylene glycol) 3350 (Fisher), and 5 mM potassium phosphate buffer (pH 7.2) (Morré & Morré, 1989, supra). The homogenate (1 g) was added to the two-phase system and the weight of the system was brought to 8 g with distilled water. The tubes were inverted vigorously for 40 times in the cold (4°C). The phases were separated by centrifugation at 750 rpm (150 x g) in a Sorvall HB 4 rotor for 5 min. The upper phases were carefully withdrawn with a pasteur pipette, divided in half and transferred into 40 ml plastic centrifuge tubes and diluted with cold 1 mM NaHCO3. The purified plasma membranes were collected by centrifugation at 10,000 x g in a HB rotor for 30 min. Plasma membrane pellets were resuspended in 50 mM Tris-Mes buffer (pH 7.2) and stored at -70°C. Proteins were determined using the bicinchoninic acid (BCA) assay (Smith et al. (1985) Anal. Biochem. […]: 76-85) with bovine serum albumin as standard.
as §1

[6] = test system: FIV-infected Crandall feline leukemia cells; assay: Growth of FIV-infected cells; type: cell-based; conditions: Felis catus, read-out: concentration inhibiting growth
Protocol: (§2) The antisera were conjugated to adriamycin through an activated carboxyl of the antibody to the amine of adriamycin free base using 2-isobutoxyl-1-isobutoxycarbonyl-1,2-dihydroxyquinoline, where the antibody was bound to an Ag-BSA sepharose affinity column. The concentration of drug conjugated was determined spectroscopically and was tested initially at a concentration of 0.2 µM on the growth of FIV-infected and -uninfected Crandall feline leukemia cells.

HL-60 cells [7] = assay: Ascorbate radical assay of electron flow released from cells; type: cell-based, human; conditions: 0.2 mM ascorbate
Protocol: Of particular interest is employing an electron acceptor in the assay for NADH oxidase, conveniently ascorbate radical, where one may follow the rate of disappearance of the ascorbate radical under the conditions of the assay. One can measure the reduction of ascorbate free radical at 265 nm employing a spectrophotometer as described by Winkler (1987) Biochim. et Biophys. Acta 925:258-264. One may use intact cells suspended in a convenient buffer medium containing ascorbate, incubating the cell suspension and then following the reduction of the ascorbate as described above. See, also, Alcain et al. (1991) Biochim. et Biophys. Acta 1073:380-385 and Navas et al. (1992) FEBS Letters 299:223-226.
Under these conditions, electron flow is inhibited by adriamycin at concentrations where growth is inhibited in adriamycin susceptible HL-60 cells, but not inhibited with adriamycin-resistant cells, where growth also is not inhibited. These inhibitions with susceptible cells were observed without perceptible lag. Also the response was observed without preincubation with adriamycin.

[8] = test system: uninfected Crandall feline leukemia cells; assay: Growth of uninfected cells; type: cell-based; conditions: Felis catus; normal cells; read-out: concentration inhibiting growth
Protocol: as §2

[9] = test system: circulating NADH oxidase in the serum; assay: NADH oxidase activity of human serum; type: biochemical; conditions: adriamycin
Protocol: as §1

[10] = biological target: T1, plasma membrane NADH oxidase activity from RLT-N hepatoma (Rattus norvegicus, UniProt D3Z9Z5); assay: Spectrophotometric NADH oxidase assay, rat hepatoma plasma membranes; type: biochemical
T1 sequence (D3Z9Z5 1-606): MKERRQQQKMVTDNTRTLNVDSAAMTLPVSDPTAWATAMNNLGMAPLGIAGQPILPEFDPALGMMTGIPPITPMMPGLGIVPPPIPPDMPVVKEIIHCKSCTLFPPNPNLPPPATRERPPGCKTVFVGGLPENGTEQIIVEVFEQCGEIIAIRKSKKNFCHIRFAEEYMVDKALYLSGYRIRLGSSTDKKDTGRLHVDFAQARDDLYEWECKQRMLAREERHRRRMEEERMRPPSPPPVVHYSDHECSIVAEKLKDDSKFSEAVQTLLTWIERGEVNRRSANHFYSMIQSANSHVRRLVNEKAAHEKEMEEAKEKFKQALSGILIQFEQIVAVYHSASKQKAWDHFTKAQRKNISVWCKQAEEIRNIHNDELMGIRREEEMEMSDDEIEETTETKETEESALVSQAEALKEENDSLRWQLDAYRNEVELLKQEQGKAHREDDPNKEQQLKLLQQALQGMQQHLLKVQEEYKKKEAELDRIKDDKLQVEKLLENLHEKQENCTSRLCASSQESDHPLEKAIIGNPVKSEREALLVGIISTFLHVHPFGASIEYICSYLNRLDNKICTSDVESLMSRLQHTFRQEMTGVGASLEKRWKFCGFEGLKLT
Protocol: as §1

[11] = biological target: T2, NADH oxidase from HeLa cell plasma membranes (Homo sapiens, UniProt Q16206); assay: Spectrophotometric NADH oxidase assay, HeLa plasma membranes; type: biochemical; conditions: HeLa plasma membranes
T2 sequence (Q16206 1-610): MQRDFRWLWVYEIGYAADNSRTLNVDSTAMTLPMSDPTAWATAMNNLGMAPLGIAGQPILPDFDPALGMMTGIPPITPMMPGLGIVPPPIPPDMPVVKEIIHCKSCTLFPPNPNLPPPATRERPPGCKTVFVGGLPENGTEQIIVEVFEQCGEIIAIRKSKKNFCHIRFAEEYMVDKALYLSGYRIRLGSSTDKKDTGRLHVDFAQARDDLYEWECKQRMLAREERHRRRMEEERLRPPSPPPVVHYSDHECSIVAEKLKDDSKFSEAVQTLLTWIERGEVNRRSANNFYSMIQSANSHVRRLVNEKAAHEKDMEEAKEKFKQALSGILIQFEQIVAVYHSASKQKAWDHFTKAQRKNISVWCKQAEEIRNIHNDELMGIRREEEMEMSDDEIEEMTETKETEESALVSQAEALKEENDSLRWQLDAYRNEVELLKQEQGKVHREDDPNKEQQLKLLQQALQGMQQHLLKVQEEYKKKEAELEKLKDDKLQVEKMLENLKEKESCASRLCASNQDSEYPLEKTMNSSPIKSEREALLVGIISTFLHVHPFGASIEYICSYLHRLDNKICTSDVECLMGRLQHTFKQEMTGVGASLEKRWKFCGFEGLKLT
Protocol: Purification of plasma membranes from HeLa cells. HeLa cells were grown as suspension cultures in minimum essential medium (MEM) supplemented with horse serum, diferric transferrin and heparin. Cells were collected by centrifugation for 6 to 15 min at 1,000 to 3,000 rpm. The cell pellets were resuspended in 0.2 mM EDTA in 1 mM NaHCO3 in an approximate ratio of 1 ml per 10^8 cells and incubated on ice for 10 to 30 min to swell the cells. Homogenization was with a Polytron Homogenizer for 30 to 40 sec at 10,500 rpm using a PT-PA 3012/23 or ST-probe in 7 to 8 ml aliquots. To estimate breakage, the cells are monitored by light microscopy before and after homogenization. […]
The homogenates were centrifuged for 10 min at 1,000 rpm (175 g) to remove unbroken cells and nuclei and the supernatant was centrifuged a second time at 1.4 x 10^6 g min (e.g. 1 h at 23,500 g) to prepare a plasma membrane enriched microsome fraction. […] The purity of the plasma membrane was determined to be > 90% by electron microscope morphometry. […]
Spectrophometric assay of NADH oxidase. NADH oxidase activity was determined as the disappearance of NADH measured at 340 nm in a reaction mixture containing 25 mM Tris-MES buffer (pH 7.2), 1 mM KCN to inhibit the low levels of contaminating mitochondrial oxidase activity, and 150 µM NADH at 37°C with constant stirring. […]

C=C1/C(=C\C=C2/CCC[C@]3(C)[C@@H]([C@H](C)CCCC(C)(C)O)CC[C@@H]23)C[C@@H](O)C[C@@H]1O [Calcitrol]
NADH oxidase [1]: 0.16 ± 0.04 nmoles/min/mg protein

COc1cccc2c1C(=O)c1c(O)c3c(c(O)c1C2=O)C[C@@](O)(C(=O)CO)C[C@@H]3O[C@H]1C[C@H](N)[C@H](O)[C@H](C)O1 [adriamycin]
inhibition of growth (in words) (HL-60 cells [2]; HL-60 cells, adriamycin susceptible, not differentiated): inhibited | inhibition of growth (in words) (HL-60 cells [2]; adriamycin-resistant cells): not inhibited | Relative rates of NADH oxidation ([3]; serum from normal rats, no adriamycin 1.7 ± 0.1): 1.75 ± 0.05 | Relative rates of NADH oxidation ([3]; serum from rats bearing an RLT-28 tumor, no adriamycin 1.0 ± 0.1): 0.35 ± 0.05 | inhibition of NADH oxidase activity (in words) ([4]; adriamycin-resistant HL-60 cells): not inhibited | inhibition of NADH oxidase activity (in words) ([4]; normal, adriamycin-susceptible HL-60 cells): inhibited | inhibition of growth factor-stimulated NADH oxidase activity ([5]; 0.1 µM adriamycin, activity stimulated by epidermal growth factor (EGF)): inhibited completely | inhibition of NADH oxidase activity ([5]; 0.1 µM adriamycin, liver plasma membranes): uninhibited | IC50 ([5]; plasma membranes from rat liver, normal cells, read-out: ED50 for inhibition of NADH oxidase activity): ~7 µM | minimal effective concentration [6]: ≥ 10 µM | inhibition of electron flow (in words) (HL-60 cells [7]; adriamycin susceptible HL-60 cells): inhibited | inhibition of electron flow (in words) (HL-60 cells [7]; adriamycin-resistant cells): not inhibited | minimal effective concentration [8]: ≥ 10 µM | effect on change in absorbance (in words) ([9]; sera from 12 normal individuals): consistently stimulated | effect on activity (in words) ([9]; sera from the 18 cancer patients): inhibited with 17 of the samples and unchanged in one | inhibition at 0.1 µM ([10]; 0.1 µM adriamycin, hepatoma plasma membranes): 40%

CCCCCCCCCC[C@H](O)[C@H]1CC[C@H]([C@H]2CC[C@H]([C@H](O)CCCCCCCCCC[C@@H](O)CC3=C[C@H](C)OC3=O)O2)O1 [bullatacin]
inhibition of NADH oxidase activity (in words) [11]: inhibition

simalikalactone D [similikalactone D]
inhibition of NADH oxidase activity (in words) ([10]; final concentration of 0.4 µM prepared in DMSO, equivalent DMSO without effect): inhibited
